Source: patent publication US10085974B2, “Dosage and formulation” (Almirall, S.A., priority 2008, dated 2018)

Key:
[1] = system: Patients with moderate to severe stable COPD; assay: Spirometric measurements (FEV1) in a 4-week randomized once-daily trial in COPD patients; type: in vivo, human; details: for Mean change from baseline in trough FEV1 on Day 29 (Mean Δ): COPD patients
Procedure: (§1) Methods: Patients with moderate to severe stable COPD were randomized to receive double-blind, once-daily treatment with aclidinium (25, 50, 100, 200, or 400 μg), placebo, or open-label tiotropium 18 μg for 4 weeks. Spirometric measurements were performed at 22-24 h after the first dose and then at weekly intervals, and from 0.5-6 h post-administration on Day 1 and at Week 4 (Day 29).

[2] = system: Patients with moderate to severe stable COPD; assay: Tolerability (ECG, laboratory parameters, adverse events) in the 4-week COPD trial; type: in vivo, human; details: aclidinium 25-400 μg once daily, 4 weeks
Procedure: as §1

| SMILES | Mean change from baseline in trough FEV1 on Day 29 (Mean Δ) ([1]; tiotropium 18 μg once daily, open-label, 4 weeks, *p <0.05 vs placebo) | Mean change from baseline in trough FEV1 on Day 29 (Mean Δ) ([1]; aclidinium 25 μg once daily, double-blind, 4 weeks, inhaled) | Mean change from baseline in trough FEV1 on Day 29 (Mean Δ) ([1]; aclidinium 50 μg once daily, double-blind, 4 weeks) | Mean change from baseline in trough FEV1 on Day 29 (Mean Δ) ([1]; aclidinium 100 μg once daily, double-blind, 4 weeks) | Mean change from baseline in trough FEV1 on Day 29 (Mean Δ) ([1]; aclidinium 200 μg once daily, double-blind, 4 weeks, *p <0.05 vs placebo) | Mean change from baseline in trough FEV1 on Day 29 (Mean Δ) ([1]; aclidinium 400 μg once daily, double-blind, 4 weeks, *p <0.05 vs placebo) | Effect on trough FEV1 on Day 29 ([1]; aclidinium 25-400 μg once daily, 4 weeks) | Bronchodilatory effect compared with open-label tiotropium 18 μg ([1]; aclidinium 200 and 400 μg) | Bronchodilatory effect during the first 6 h post-dose on Day 29 ([1]; all doses, compared with Day 1) | Duration of bronchodilation ([1]; once-daily aclidinium) | Time to peak FEV1 ([1]; post-dose, aclidinium 100-400 μg) | Effect on ECG, laboratory parameters or adverse events [2] | Tolerability [2] |
| --- | --- | --- | --- | --- | --- | --- | --- | --- | --- | --- | --- | --- | --- |
| C[N+]1(C)[C@@H]2C[C@@H](OC(=O)C(O)(c3cccs3)c3cccs3)C[C@H]1[C@@H]1O[C@@H]12 [Tiotropium, reference compound] | 161* ml |  |  |  |  |  |  |  |  |  |  |  |  |
| O=C(O[C@H]1C[N+]2(CCCOc3ccccc3)CCC1CC2)C(O)(c1cccs1)c1cccs1.[Br-] [Aclidinium, 3(R)-(2-hydroxy-2,2-dithien-2-ylacetoxy)-1-(3-phenoxypropyl)-1-azoniabicyclo[2.2.2]octane bromide] |  | 39 mL | 36 mL | 83 mL | 148* ml | 128* ml | dose-dependently increased | comparable bronchodilatory effects | comparable to that on Day 1 | sustained bronchodilation over 24 h | 3 h | no dose-dependent effect | well tolerated |
